Measurements published in US8871772B2, “Therapeutic methods and compounds” (Ampio Pharmaceuticals, Inc., priority 2008, dated 2014).

Legend:
Format in all cases: cell-based
[1] = system: AU565 breast cancer cell line; assay: Proliferation of AU565 cancer cells, Promega cell titer assay; conditions: AU565, 20 μM, 96 hours; negative number = increase
Description: (§1) Assays were performed to determine the effect of Cpd. 5 (synthesis described in Example 1) on proliferation of two cancer cell lines. These two cell lines were STTG grade 4 astrocytoma cell line and AU565 breast cancer cell line. Both cell lines were obtained from American Type Culture Collection, Rockville, Md. (ATCC).
(§2) To perform the assays, a 50 mM stock solution of Cpd. 5 was prepared in DMSO and frozen at −80° C. Aliquots of the stock solution were removed and 100 μM dilutions were made in Iscove's modified Dulbecco's medium (IMDM; obtained from ATCC) supplemented with 10% fetal bovine serum (FBS) and penicillin/streptomycin solution. Controls containing equivalent amounts of DMSO to the 100 μM solution were mixed for comparative purposes. 100 μl of the resulting solutions were then added to 96 well culture plates in triplicate and placed in a 37° C. incubator with 5% CO2 to warm.
(§3) At this point, cells were removed from passage flasks using trypsin and counted using trypan blue to establish cell counts/ml and viability. For all experiments, viability of cells was greater than 95%. Solutions of 4,000 cells/100 μl were prepared in the medium from above and 100 μl of the solutions were added to each well of the plates. The plates were placed back in the incubator and incubated with the compounds for 96 hours.
(§4) Following incubation, cell proliferation was assayed by adding 20 μl Promega cell titer aqueous one reagent to each well. […] The plates were incubated at 37° C. for an additional 4-18 hours to allow the colorimetric assay to develop, and the OD of each well was determined in a microplate reader using a 530 nm filter. The OD of wells containing cell titer reagent in culture medium with no cells was subtracted from the OD of all experimental readings.
(§5) The % decrease of the total cell titer signal was determined using the following formula. […] The p values were calculated versus diluent controls.

[2] = system: STTG grade 4 astrocytoma cell line; assay: Proliferation of STTG cancer cells, Promega cell titer assay; conditions: 20 μM, 96 hours, negative number = increase
Description: as §1, §2, §3, §4, §5

[3] = system: U-118 metastatic astrocytoma cell line; assay: Proliferation of U-118 cancer cells, Promega cell titer assay
Description: Assays were performed to determine the effect of Cpd. 5 on proliferation of an additional cancer cell line. This cell line was the U-118 metastatic astrocytoma cell line. It was obtained from ATCC.
To perform the assays, a 50 mM stock solution of Cpd. 5 was prepared in DMSO and frozen at −80° C. […] Controls containing equivalent amounts of DMSO to the 300 μM solution were mixed for comparative purposes. 100 μl of the resulting solutions were then added to 96 well culture plates in triplicate and placed in a 37° C. incubator with 5% CO2 to warm.
as §3, with “Cells” for “At this point, cells”, “trypsin and ethylenediaminetetracetic acid (EDTA)” for “trypsin”, “above,” for “above”
Following incubation, cell proliferation was assayed by adding 20 μl Promega cell titer aqueous one reagent to each well. Promega cell titer reagent is a solution containing a tetrazolium dye that is reduced by living cells to a formazan dye, and this reduction is proportional to the number of living cells present in the well. The plates were incubated at 37° C. for an additional 4 hours to allow the colorimetric assay to develop, and the OD of each well was determined in a microplate reader using a 530 nm filter. The OD of wells containing cell titer reagent in culture medium with no cells was subtracted from the OD of all experimental readings.
The % decrease of the total cell titer signal was determined using the following formula. ((Diluent OD−Experimental OD)/Diluent OD))×100. Data are presented in Table 5 as mean % decrease of cell titer signal of three separate experiments, plus or minus standard deviation. In the mean % decrease column, a positive number means a decrease in cell titer signal, while a negative number means an increase in cell titer signal. The p values were calculated versus diluent controls.
The above experiment was repeated using the U-118 cells at 3000 cells/well.

O=c1cc(N2CCNCC2)oc2c(-c3ccccc3)cccc12 [LY303511, reference compound]
MEAN % DECREASE of cell titer signal [1]: −2.34% | MEAN % DECREASE of cell titer signal [2]: −4.74% | MEAN % DECREASE of cell titer signal ([3]; U-118, 3000 cells/well, 40 μM final): 0.41% | MEAN % DECREASE of cell titer signal ([3]; U-118, 4,000 cells/well, 20 μM final, 96 hours): −25.93%
